Series [1] has as its system MDA-MB-468 cells. The experiment in a line: In vitro cell activity, MDA-MB-468 cells, CCK-8. The format is cell-based. As to conditions: Homo sapiens, MDA-MB-468, 168 h, read-out: IC50 MDA-MB-468 Cell, triple negative breast cancer cells, 7 days. As to the method: Test compounds: the compounds of the present invention prepared in the above example. Each compound was formulated into a 10 mM stock solution with DMSO, and finally diluted into 8 concentrations for detection, with the final concentrations being 33333.00 nM, 6666.60 nM, 1333.32 nM, 266.66 nM, 53.33 nM, 10.67 nM, 2.13 nM, and 0.43 nM for experiments in Z-138 cells.
After thawing, the cryovial was taken out, and sterilized with an alcohol cotton ball, after which the cap was unscrewed. The cell fluid was drawn and injected into a centrifuge tube. 1 mL of L-15 medium containing 10% FBS was added, and mixed uniformly. The tube was placed in a centrifuge, and centrifuged at 1000 rpm for 5 min. Afterwards, the supernatant was discarded, and complete medium was added. The mixture was pipetted repeatedly until the cells were completely dispersed and resuspended. The mixture was inoculated in a petri dish at an appropriate concentration, and cultured in a CO2-free incubator at 37° C., and 95% humidified air.
The medium (Leibovitz's L-15 Medium+10% FBS+1% penicillin-streptomycin) was transferred to a 15 mL centrifuge tube, and centrifuged at 1000 rpm for 5 min. The supernatant was removed. The cells were resuspended in complete medium, and inoculated in a petri dish at the desired density. The dish was placed in a CO2-free incubator at 37° C., and 95% humid air. The culture medium was changed every 2-3 days or the passage was carried out, depending on the cell growth.
After passage, MDA-MB-468 cells were resuspended in complete medium at the corresponding density, 2000 cells/well, and inoculated in a 96-well culture plate. The wells at the outer circumference were filled with 200 μL PBS to prevent the culture conditions of the inner plate wells from being too different from each other due to the faster evaporation of medium at the edge. The leftmost column of the 60 inner wells were blank wells, which were not added with cells, but filled with equal volume of PBS. The remaining 54 wells were subjected to cell plating with a multichannel pipette, to each well was added 100 μL. The plate was placed in a CO2-free incubator and cultured at 37° C. for 24 h. […]
The first column of PBS was used as a blank control well, and 100 μL of CCK-8 was added synchronously thereto. […] The optimal detection time was determined according to the shade of color developed by CCK-8 (the optimal OD value for the DMSO group was about 1.0). […] The microplate reader software was opened, the detection parameters were adjusted, and the absorbance at 450 nm (OD value) was detected. The cover of the culture plate was removed, and the culture plate was directly placed horizontally in the plate groove to start reading. After the reading was finished, the program was saved, and the data was exported. […]

In series [2] the target is hERG potassium channel (Homo sapiens (Human), UniProt Q12809). The experiment in a line: Electrophysiological manual patch-clamp detection of effect on hERG potassium channel. (In general: Patch clamp records ionic current or voltage across a cell membrane.)
Description: Preparation of test solvents: preparation of extracellular fluid (mM): 137 NaCl, 4 KCl, 1.8 CaCl2, 1 MgCl2, 10 glucose and 10 HEPES (pH 7.4); preparation of intracellular fluid (mM): 130 KCl, 1 MgCl2, 5 EGTA, 5 MgATP and 10 HEPES (pH 7.2); preparation of negative control: extracellular fluid+0.3% DMSO; positive control: quinidine.
Compound treatment: The compound was weighed and dissolved in DMSO to prepare a 10 mM stock solution, which was diluted with DMSO to form secondary stock solutions with concentrations of 3.3, 1.1, 0.37 and 0.12 mM. 90 μL each of the stock solution and the secondary stock solutions was diluted into 30 mL of extracellular fluid for electrophysiological detection. The final concentrations of the compound were 30, 10, 3.3, 1.1 and 0.37 μM, and the final concentration of DMSO was 3:1000.
Stably transfected cell culture: The cell line was originated from HEK-293 cells overexpressing hERG potassium ion channel. […] The cells were cultured in an incubator at 37° C. and 5% CO2. When the cell density reaches 80% of the petri dish, the cells were first pre-washed with phosphate buffered saline (PBS), then digested with trypsin/EDTA for 2-3 min. Cell culture medium was added to stop the digestion. The cells were gently blown down and transferred to a centrifuge tube, and centrifuged at 1000 rpm for 3 min. The supernatant was discarded, cell culture medium was added, and the cells were mixed uniformly by gentle tapping. After that, the mixture was transferred to a petri dish for subculture, or the cells were dripped on a round glass slide and placed on a petri dish for the cells to adhere for experiments.
Experiments on electrophysiological manual patch-clamp system: The stably transfected cells were inoculated on a glass slide with a cell density lower than 50%, and cultured overnight. The experimental cells were transferred to a bath of about 1 mL embedded in an inverted microscope platform, and the extracellular fluid was perfused at a perfusion rate of 2.7 mL/min. After 5 minutes of stabilization, the experiment was started. Membrane currents were recorded using HEKA EPC-10 patch clamp amplifier and [sequence] acquisition system. All the experiments were performed at room temperature (22-24° C.). Electrodes were drawn straight using P-97 microelectrode drawing instrument (BF150-110-10) in the experiments. The inner diameter of the electrode was 1-1.5 mm, and the pipette resistance after filling with the inner liquid was 2-4 MΩ. The electrophysiological stimulation scheme of hERG potassium channel included: first setting the membrane voltage at −80 mV, applying a stimulation to the cells at +20 mV voltage for 2 s to activate the hERG potassium channel, and then repolarizing to −50 mV for 5 s to generate an outward tail current. The stimulation frequency was once every 15 s. The current value was the peak value of the tail current. The channel currents were recorded in the whole-cell recording mode. Firstly, the extracellular fluid was perfused (about 2 mL per minute) while recording was continued. When the current was stabilized (the current decay (Run-Down) was less than 5% within 5 minutes), the peak value of the tail current was the control current value. Then, the extracellular fluid containing the drug to be tested was perfused while the recording was continued until the inhibitory effect of the drug on the hERG current reached a steady state. At this time, the peak value of the tail current was the current value after drug addition. […]

Consider four compounds from patent US20240116918A1, “SUBSTITUTED TRICYCLIC COMPOUND AS PRMT5 INHIBITOR AND USE THEREOF” (NANJING SANHOME PHARMACEUTICAL CO., LTD., priority 2019, published 2024).

pIC50: −log10 of the molar value.

Chain of hERG potassium channel (Q12809 whole entry): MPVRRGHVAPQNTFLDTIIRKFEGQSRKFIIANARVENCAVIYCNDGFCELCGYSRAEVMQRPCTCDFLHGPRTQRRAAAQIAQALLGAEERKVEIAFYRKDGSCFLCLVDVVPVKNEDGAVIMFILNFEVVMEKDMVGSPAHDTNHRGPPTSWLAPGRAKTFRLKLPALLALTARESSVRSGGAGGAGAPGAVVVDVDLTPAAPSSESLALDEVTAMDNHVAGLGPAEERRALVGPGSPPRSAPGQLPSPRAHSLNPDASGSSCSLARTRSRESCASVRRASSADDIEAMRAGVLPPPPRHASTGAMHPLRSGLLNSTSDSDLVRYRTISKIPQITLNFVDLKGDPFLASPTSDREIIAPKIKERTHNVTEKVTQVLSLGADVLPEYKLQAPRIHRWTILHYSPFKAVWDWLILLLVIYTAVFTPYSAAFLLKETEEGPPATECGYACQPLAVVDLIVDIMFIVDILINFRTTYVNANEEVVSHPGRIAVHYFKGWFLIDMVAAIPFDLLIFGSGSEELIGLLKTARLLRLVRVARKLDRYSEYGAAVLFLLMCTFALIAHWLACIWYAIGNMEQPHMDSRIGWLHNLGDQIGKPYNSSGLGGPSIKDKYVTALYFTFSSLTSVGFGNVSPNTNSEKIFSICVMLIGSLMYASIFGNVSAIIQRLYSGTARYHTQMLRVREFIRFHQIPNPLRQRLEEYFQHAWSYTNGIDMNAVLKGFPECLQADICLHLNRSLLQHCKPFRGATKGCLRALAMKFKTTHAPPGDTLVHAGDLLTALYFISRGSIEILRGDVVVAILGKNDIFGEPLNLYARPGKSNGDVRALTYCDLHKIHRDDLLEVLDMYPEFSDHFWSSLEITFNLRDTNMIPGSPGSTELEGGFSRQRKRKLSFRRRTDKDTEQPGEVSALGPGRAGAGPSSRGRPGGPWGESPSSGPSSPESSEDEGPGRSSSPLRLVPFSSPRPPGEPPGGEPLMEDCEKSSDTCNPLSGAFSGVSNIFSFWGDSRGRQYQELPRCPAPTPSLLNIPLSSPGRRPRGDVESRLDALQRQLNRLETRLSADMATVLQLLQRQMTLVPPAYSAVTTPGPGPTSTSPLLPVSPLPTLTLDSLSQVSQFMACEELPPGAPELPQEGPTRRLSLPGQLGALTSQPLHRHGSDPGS

What is called pIC50 is the negative decadic logarithm of the IC50, by convention in mol/L. As for `CC(=O)N1CCC(Nc2cc3c(cn2)C2(CC2)CN(C[C@H](O)CN2CCc4ccccc4C2)C3=O)CC1` [Example 1, (R)-7′-((1-acetylpiperidin-4-yl)amino)-2′-(3-(3,4-dihydroisoquinolin-2(1H)-yl)-2-hydroxypropyl)-2′,3′-dihydro-1′H-spiro[cyclopropane-1,4′-[2,6]naphthyridin]-1′-one], the pIC50 in series [1] is 7.94; in series [2] it was 5.28. Also, the “inhibitory effect on the hERG potassium channel (in words)” value in series [2] (conclusion from Table 4) is listed as “weak inhibitory effect”.
Turning to `CC(=O)N1CCC(Nc2cc(C(=O)NC[C@H](O)CN3CCc4ccccc4C3)ncn2)CC1` [Compound A, (S)-6-((1-Acetylpiperidin-4-yl)amino)-N-(3-(3,4-dihydroisoquinolin-2(1H)-yl)-2-hydroxypropyl)pyrimidine-4-carboxamide], the pIC50 in series [1] is 6.94.
In the case of `CC(=O)N1CC2(CC(Nc3cc4c(cn3)C3(CC3)CN(C[C@H](O)CN3CCc5ccccc5C3)C4=O)C2)C1` [Example 2, (R)-7′-((2-acetyl-2-azaspiro[3.3]hept-6-yl)amino)-2′-(3-(3,4-dihydroisoquinolin-2(1H)-yl)-2-hydroxypropyl)-2′,3′-dihydro-1′H-spiro[cyclopropane-1,4′-[2,6]naphthyridin]-1-one], the pIC50 in series [1] is 8.13; in series [2], 4.82.
For `CC(=O)N1CCC(Nc2ccc3c(c2)C(=O)N(C[C@H](O)CN2CCc4ccccc4C2)CC32CC2)CC1` [Compound B, (R)-7′-((1-Acetylpiperidin-4-yl)amino)-2′-(3-(3,4-dihydroisoquinolin-2(1H)-yl)-2-hydroxypropyl)-2′,3′-dihydro-1′H-spiro[cyclopropane-1,4′-isoquinolin]-1′-one, reference compound] the same measures were 7.38 and 5.57.
